Legend:
[1] = target: T1, HIPK3 (Homo sapiens, UniProt Q9H422); experiment: Kinome-wide inhibition profiling; type: biochemical
T1 construct: purchased Reaction Biology Corp
Description: (§1) In vitro CDK12/cyclinK assays for all compounds and in vitro kinome-wide inhibition profiling of 30d at 10 μM were performed by a CRO company (Reaction Biology Corp., San Diego, CA, USA).

[2] = target: T2, INSRR (Homo sapiens, UniProt P14616); experiment: Kinome-wide inhibition profiling; type: biochemical
T2 construct: purchased Reaction Biology Corp
Description: as §1

[3] = target: T3, PCTK2 (Homo sapiens, UniProt Q00537); experiment: Kinome-wide inhibition profiling; type: biochemical
T3 construct: purchased Reaction Biology Corp
Description: as §1

[4] = target: T4, FES (Homo sapiens, UniProt P07332); experiment: Kinome-wide inhibition profiling; type: biochemical
T4 construct: purchased Reaction Biology Corp
Description: as §1

[5] = target: T5, RSK4 (Homo sapiens, UniProt Q9UK32); experiment: Kinome-wide inhibition profiling; type: biochemical
T5 construct: purchased Reaction Biology Corp
Description: as §1

[6] = target: T6, PKAC-gamma (Homo sapiens, UniProt P22612); experiment: Kinome-wide inhibition profiling; type: biochemical
T6 construct: purchased Reaction Biology Corp
Description: as §1

[7] = target: T7, RPS6KA4(Kin.Dom.1-N-term) (Homo sapiens, UniProt O75676); experiment: Kinome-wide inhibition profiling; type: biochemical
T7 construct: RPS6KA4(Kin.Dom.1-N-term); purchased Reaction Biology Corp
Description: as §1

[8] = target: T8, IRAK1 (Homo sapiens, UniProt P51617); experiment: Kinome-wide inhibition profiling; type: biochemical
T8 construct: purchased Reaction Biology Corp
Description: as §1

[9] = target: T9, TYRO3 (Homo sapiens, UniProt Q06418); experiment: Kinome-wide inhibition profiling; type: biochemical
T9 construct: purchased Reaction Biology Corp
Description: as §1

[10] = target: T10, MAP3K2 (Homo sapiens, UniProt Q9Y2U5); experiment: Kinome-wide inhibition profiling; type: biochemical
T10 construct: purchased Reaction Biology Corp
Description: as §1

[11] = target: T11, STK33 (Homo sapiens, UniProt Q9BYT3); experiment: Kinome-wide inhibition profiling; type: biochemical
T11 construct: purchased Reaction Biology Corp
Description: as §1

[12] = tested on: SK-Br3 cells; experiment: Combination with trastuzumab, growth inhibition; type: cell-based, human; conditions: 40 nM 30d with multiple doses of trastuzumab, 72 h
Description: (§2) Additionally, we examined a combination effect in both SK-Br3 and HCC1954 cells.
(§3) Breast-cancer cells in culture media (100 μL volume/well, 5000 SK-Br3 cells/well, 1000 HCC-1954 cells/well) were seeded in tissue culture-treated 96-well plates, and incubated at a cell incubator for 24 h. Serially diluted compounds (3-fold, 10 point from 10 mM, duplicated) were pre-plated and 500 nL of compound solutions were pin-transferred to the cells in the assay plates using pintool system (JANUS liquid handler, PerkinElmer, Waltham, MA, USA) and incubated at a cell incubator for 72 h. Cell-titer Glo^TM reagent (50 μL, Promega Corp., Madison, WI, USA) was added to each well, and the luminescence signal was read using an Envision^TM plate reader (PerkinElmer, Waltham, MA, USA). The titration curve fitting and IC50 values were generated using Prism 7.0 s/w (GraphPad, San Diego, CA, USA).

[13] = tested on: HCC1954 cells; experiment: Combination with trastuzumab, growth inhibition; type: cell-based, human; conditions: 40 nM 30d with multiple doses of trastuzumab, 72 h
Description: as §2, §3

[14] = target: T12, YSK1 (Homo sapiens, UniProt O00506); set-up: method as in HMS LINCS database; conditions: 10 μM, ref HMS LINCS database; cited from earlier work
T12 construct: purchased Reaction Biology Corp

[15] = target: T13, TAOK1 (Homo sapiens, UniProt Q7L7X3); set-up: method as in HMS LINCS database; conditions: 10 μM, ref HMS LINCS database; cited from earlier work
T13 construct: purchased Reaction Biology Corp

[16] = tested on: CDKL2; set-up: method as in HMS LINCS database; conditions: 10 μM, ref HMS LINCS database; cited from earlier work
[17] = target: T14, PAK3 (Homo sapiens, UniProt O75914); set-up: method as in HMS LINCS database; conditions: 10 μM, ref HMS LINCS database; cited from earlier work
T14 construct: purchased Reaction Biology Corp

[18] = target: T15, DYRK1A (Homo sapiens, UniProt Q13627); set-up: method as in HMS LINCS database; conditions: 10 μM, ref HMS LINCS database; cited from earlier work
T15 construct: purchased Reaction Biology Corp

[19] = tested on: CDKL1; set-up: method as in HMS LINCS database; conditions: 10 μM, ref HMS LINCS database; cited from earlier work
[20] = target: T16, ICK (Homo sapiens, UniProt Q9UPZ9); set-up: method as in HMS LINCS database; conditions: 10 μM, ref HMS LINCS database; cited from earlier work
T16 construct: purchased Reaction Biology Corp

[21] = tested on: PFTAIRE2; set-up: method as in HMS LINCS database; conditions: 10 μM, ref HMS LINCS database; cited from earlier work
[22] = target: T17, CLK4 (Homo sapiens, UniProt Q9HAZ1); set-up: method as in HMS LINCS database; conditions: 10 μM, ref HMS LINCS database; cited from earlier work
T17 construct: purchased Reaction Biology Corp

[23] = tested on: CDK4-cyclinD3; set-up: method as in HMS LINCS database; conditions: 10 μM, ref HMS LINCS database; cited from earlier work
[24] = tested on: PFPK5(P.falciparum); set-up: method as in HMS LINCS database; conditions: 10 μM, ref HMS LINCS database; cited from earlier work
[25] = target: T18, GSK3a (Homo sapiens, UniProt P49840); set-up: method as in HMS LINCS database; conditions: 10 μM, ref HMS LINCS database; cited from earlier work
T18 construct: purchased Reaction Biology Corp

[26] = target: T19, TAOK2 (Homo sapiens, UniProt Q9UL54); set-up: method as in HMS LINCS database; conditions: 10 μM, ref HMS LINCS database; cited from earlier work
T19 construct: purchased Reaction Biology Corp

[27] = tested on: CDKL5; set-up: method as in HMS LINCS database; conditions: 10 μM, ref HMS LINCS database; cited from earlier work
[28] = target: T1, HIPK3; set-up: method as in HMS LINCS database; conditions: 10 μM, ref HMS LINCS database; cited from earlier work
[29] = target: T20, ERK5 (Homo sapiens, UniProt Q13164); set-up: method as in HMS LINCS database; conditions: 10 μM, ref HMS LINCS database; cited from earlier work
T20 construct: purchased Reaction Biology Corp

[30] = target: T21, TLK2 (Homo sapiens, UniProt Q86UE8); set-up: method as in HMS LINCS database; conditions: 10 μM, ref HMS LINCS database; cited from earlier work
T21 construct: purchased Reaction Biology Corp

[31] = tested on: ERK8; set-up: method as in HMS LINCS database; conditions: 10 μM, ref HMS LINCS database; cited from earlier work
[32] = target: T22, HIPK2 (Homo sapiens, UniProt Q9H2X6); set-up: method as in HMS LINCS database; conditions: 10 μM, ref HMS LINCS database; cited from earlier work
T22 construct: purchased Reaction Biology Corp

[33] = tested on: CDK7; set-up: method as in HMS LINCS database; conditions: 10 μM, ref HMS LINCS database; cited from earlier work
[34] = target: T23, TAOK3 (Homo sapiens, UniProt Q9H2K8); set-up: method as in HMS LINCS database; conditions: 10 μM, ref HMS LINCS database; cited from earlier work
T23 construct: purchased Reaction Biology Corp

T1 sequence (Q9H422 whole entry): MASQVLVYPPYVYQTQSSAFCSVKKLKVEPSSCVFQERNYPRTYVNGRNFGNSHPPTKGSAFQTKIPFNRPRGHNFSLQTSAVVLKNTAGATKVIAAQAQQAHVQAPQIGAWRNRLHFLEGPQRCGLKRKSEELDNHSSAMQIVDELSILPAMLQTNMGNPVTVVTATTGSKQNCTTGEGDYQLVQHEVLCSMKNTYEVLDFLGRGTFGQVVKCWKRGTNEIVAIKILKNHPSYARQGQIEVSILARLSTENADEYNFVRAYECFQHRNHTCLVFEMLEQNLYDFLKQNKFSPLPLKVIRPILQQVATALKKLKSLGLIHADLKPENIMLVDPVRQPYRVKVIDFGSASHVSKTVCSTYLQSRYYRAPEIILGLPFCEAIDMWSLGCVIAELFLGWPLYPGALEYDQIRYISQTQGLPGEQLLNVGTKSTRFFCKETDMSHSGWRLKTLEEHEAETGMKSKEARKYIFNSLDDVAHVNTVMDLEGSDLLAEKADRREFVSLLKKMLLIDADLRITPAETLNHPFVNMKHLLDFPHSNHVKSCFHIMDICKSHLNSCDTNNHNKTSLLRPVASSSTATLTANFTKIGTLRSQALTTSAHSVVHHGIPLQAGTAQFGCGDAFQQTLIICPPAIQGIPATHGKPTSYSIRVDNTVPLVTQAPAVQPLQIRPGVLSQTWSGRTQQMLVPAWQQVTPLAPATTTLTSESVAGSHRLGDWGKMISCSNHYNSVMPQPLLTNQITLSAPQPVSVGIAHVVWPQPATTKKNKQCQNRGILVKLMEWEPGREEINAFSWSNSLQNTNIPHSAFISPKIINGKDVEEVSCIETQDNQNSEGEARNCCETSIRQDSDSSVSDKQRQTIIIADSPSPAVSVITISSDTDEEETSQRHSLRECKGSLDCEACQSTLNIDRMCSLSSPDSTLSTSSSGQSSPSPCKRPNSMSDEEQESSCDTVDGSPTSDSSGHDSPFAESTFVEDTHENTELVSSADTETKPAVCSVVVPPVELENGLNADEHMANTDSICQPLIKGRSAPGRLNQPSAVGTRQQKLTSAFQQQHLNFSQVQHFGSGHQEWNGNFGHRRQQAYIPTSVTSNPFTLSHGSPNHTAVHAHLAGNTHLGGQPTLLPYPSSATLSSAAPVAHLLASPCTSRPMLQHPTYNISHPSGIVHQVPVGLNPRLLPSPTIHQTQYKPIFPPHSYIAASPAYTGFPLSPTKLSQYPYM
T13 sequence (Q7L7X3 whole entry): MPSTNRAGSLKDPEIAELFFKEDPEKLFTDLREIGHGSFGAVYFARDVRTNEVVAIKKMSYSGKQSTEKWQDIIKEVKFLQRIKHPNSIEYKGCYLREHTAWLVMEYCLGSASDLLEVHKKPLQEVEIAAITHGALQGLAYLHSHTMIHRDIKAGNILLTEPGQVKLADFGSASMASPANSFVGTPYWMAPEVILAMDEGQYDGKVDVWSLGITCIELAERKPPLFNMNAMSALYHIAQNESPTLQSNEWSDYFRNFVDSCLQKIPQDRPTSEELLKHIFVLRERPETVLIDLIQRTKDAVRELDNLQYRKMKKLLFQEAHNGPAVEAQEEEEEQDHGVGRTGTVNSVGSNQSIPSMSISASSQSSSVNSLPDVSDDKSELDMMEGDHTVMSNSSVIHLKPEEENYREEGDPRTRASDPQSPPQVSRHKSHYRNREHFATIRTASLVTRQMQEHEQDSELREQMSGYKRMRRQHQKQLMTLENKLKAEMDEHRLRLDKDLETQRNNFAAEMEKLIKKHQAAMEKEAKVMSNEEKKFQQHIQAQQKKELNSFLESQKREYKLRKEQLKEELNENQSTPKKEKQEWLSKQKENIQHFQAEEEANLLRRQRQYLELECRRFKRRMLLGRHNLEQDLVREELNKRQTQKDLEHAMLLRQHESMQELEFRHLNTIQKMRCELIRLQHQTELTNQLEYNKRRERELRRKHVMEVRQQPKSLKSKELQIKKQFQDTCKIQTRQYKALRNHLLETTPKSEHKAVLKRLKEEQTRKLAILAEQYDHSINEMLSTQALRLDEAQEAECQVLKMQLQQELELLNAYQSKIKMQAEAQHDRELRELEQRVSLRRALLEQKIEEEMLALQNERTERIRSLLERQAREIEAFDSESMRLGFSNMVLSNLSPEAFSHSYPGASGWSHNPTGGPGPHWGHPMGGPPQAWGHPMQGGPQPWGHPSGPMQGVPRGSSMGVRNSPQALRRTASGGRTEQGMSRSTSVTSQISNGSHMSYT
T6 sequence (P22612 whole entry): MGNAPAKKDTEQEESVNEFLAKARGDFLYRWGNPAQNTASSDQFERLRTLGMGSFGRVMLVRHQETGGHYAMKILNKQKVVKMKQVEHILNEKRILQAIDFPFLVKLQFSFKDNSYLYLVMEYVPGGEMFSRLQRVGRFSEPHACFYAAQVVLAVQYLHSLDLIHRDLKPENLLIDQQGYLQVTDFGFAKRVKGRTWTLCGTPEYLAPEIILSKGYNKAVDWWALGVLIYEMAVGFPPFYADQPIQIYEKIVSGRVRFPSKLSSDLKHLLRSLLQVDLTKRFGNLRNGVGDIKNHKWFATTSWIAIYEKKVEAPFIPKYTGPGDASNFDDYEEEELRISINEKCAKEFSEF
T12 sequence (O00506 whole entry): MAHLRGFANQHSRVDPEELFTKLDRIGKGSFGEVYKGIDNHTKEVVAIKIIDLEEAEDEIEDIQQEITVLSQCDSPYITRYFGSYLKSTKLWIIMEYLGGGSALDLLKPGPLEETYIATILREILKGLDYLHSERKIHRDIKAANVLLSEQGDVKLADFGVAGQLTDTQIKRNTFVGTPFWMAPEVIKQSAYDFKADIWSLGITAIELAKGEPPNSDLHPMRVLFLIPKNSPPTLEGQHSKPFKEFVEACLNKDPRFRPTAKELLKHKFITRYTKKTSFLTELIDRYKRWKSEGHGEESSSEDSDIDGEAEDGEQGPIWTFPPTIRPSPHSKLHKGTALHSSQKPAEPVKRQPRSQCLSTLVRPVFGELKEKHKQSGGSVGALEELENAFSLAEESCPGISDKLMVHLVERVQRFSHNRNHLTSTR
T5 sequence (Q9UK32 whole entry): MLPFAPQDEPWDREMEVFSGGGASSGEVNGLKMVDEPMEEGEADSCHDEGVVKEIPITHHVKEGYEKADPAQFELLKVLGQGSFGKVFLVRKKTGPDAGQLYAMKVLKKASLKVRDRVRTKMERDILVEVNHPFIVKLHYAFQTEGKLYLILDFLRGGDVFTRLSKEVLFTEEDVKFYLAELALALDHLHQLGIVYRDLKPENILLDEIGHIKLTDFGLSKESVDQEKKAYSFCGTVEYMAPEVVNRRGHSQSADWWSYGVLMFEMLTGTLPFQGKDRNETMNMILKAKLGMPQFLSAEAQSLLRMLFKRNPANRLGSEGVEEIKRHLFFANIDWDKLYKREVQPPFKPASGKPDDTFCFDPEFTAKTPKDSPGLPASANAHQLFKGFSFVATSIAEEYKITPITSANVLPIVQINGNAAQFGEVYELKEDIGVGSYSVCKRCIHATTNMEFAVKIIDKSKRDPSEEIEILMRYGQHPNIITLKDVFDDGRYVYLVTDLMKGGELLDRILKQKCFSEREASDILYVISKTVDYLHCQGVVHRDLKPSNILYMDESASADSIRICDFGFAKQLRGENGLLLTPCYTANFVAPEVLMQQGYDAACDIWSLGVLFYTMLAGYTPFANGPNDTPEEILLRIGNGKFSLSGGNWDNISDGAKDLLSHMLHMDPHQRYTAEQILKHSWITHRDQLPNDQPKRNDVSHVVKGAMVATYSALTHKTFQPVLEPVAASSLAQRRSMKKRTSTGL
T16 sequence (Q9UPZ9 whole entry): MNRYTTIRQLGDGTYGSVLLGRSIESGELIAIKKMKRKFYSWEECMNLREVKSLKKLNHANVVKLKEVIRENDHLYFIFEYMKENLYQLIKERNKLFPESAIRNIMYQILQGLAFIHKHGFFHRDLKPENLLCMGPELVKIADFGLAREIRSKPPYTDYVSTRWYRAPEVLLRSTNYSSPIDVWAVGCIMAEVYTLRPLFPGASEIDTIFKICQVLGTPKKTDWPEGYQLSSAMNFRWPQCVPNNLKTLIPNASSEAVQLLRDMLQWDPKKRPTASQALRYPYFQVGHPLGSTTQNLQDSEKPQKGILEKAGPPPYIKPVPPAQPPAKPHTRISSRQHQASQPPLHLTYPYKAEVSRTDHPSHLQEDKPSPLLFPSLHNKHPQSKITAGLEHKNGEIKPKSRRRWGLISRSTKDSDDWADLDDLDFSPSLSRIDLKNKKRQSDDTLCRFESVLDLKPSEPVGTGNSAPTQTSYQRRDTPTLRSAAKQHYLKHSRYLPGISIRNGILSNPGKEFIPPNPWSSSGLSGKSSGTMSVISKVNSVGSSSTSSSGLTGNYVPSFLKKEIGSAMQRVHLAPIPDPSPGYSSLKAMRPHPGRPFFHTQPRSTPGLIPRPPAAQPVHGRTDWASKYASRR
T17 sequence (Q9HAZ1 whole entry): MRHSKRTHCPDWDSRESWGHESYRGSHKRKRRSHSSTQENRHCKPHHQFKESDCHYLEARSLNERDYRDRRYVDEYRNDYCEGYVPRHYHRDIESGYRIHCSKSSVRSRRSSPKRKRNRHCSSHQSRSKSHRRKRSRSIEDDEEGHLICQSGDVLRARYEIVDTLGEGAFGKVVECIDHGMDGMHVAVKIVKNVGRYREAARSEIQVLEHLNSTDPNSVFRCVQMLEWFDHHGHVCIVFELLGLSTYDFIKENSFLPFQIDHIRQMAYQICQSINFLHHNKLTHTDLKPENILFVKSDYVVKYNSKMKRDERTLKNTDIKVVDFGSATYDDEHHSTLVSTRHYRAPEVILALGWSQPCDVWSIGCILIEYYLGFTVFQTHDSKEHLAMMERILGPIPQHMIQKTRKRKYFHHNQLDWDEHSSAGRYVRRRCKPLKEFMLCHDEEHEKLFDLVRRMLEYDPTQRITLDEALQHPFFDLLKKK

CCn1cnc2c(NCc3ccc(-c4ccccn4)nc3)nc(-c3ccc(N)nc3)nc21 [Compound 30d, N-([2,2′-Bipyridin]-5-ylmethyl)-2-(6-aminopyridin-3-yl)-9-ethyl-9H-purin-6-amine]
remaining activity at 10 µM [1]: 94.1% | remaining activity at 10 µM [2]: 31.1% | remaining activity at 10 µM [3]: 7.3% | remaining activity at 10 µM [4]: 6.4% | remaining activity at 10 µM [5]: 54.2% | remaining activity at 10 µM [6]: 88.4% | remaining activity at 10 µM [7]: 115% | remaining activity at 10 µM [8]: 79% | remaining activity at 10 µM [9]: 22.4% | remaining activity at 10 µM [10]: 90% | remaining activity at 10 µM [11]: 33.5% | combination effect with trastuzumab in growth inhibition [12]: modest level of synergism | combination effect with trastuzumab in growth inhibition [13]: modest level of synergism

CCc1cnn2c(NCc3ccc[n+]([O-])c3)cc(N3CCCC[C@H]3CCO)nc12 [Dinaciclib]
% control [14]: 9.2% | % control [15]: 3.1% | % control [16]: 10% | % control [17]: 7.8% | % control [18]: 6.0% | % control [19]: 9.1% | % control [20]: 0.9% | % control [21]: 0.4% | % control [22]: 5.1% | % control [23]: 2.0% | % control [24]: 1.2% | % control [25]: 3.0% | % control [26]: 4.8% | % control [27]: 1.6% | % control [28]: 4.4% | % control [29]: 2.9% | % control [30]: 0.5% | % control [31]: 1.0% | % control [32]: 3.6% | % control [33]: 0.4% | % control [34]: 3.8%

— publication PMC9506414, “Novel 2,6,9-Trisubstituted Purines as Potent CDK Inhibitors Alleviating Trastuzumab-Resistance of HER2-Positive Breast Cancers” (Pharmaceuticals, 2022)
